# Columns and labels:
# α-Gal A [1] = target: T1, α-Gal A (Homo sapiens, UniProt P06280); settings: 10 mM Tris vs 0 mM Tris
# T1 sequence (P06280 32-429): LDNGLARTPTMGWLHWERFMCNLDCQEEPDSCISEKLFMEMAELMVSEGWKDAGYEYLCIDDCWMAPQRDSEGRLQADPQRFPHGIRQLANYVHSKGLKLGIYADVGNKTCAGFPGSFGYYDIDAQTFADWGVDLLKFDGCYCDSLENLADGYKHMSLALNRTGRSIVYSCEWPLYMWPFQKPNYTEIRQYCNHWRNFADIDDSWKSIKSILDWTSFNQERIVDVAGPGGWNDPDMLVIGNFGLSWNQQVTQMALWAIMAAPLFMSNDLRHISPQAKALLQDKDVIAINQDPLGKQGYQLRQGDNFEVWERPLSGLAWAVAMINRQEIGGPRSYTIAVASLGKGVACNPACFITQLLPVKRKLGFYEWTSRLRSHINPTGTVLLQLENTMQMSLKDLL
# Description: FIG. 1 depicts Thermal Stability curves of α-Gal A at 0 mM (blue) and 10 mM (red) Tris buffer.
# α-Gal A [2] = target: T1, α-Gal A; settings: buffer comprising Tris at 150 mM
smiles,measurement,setting,value
"NC(CO)(CO)CO [Tris, tris(hydroxymethyl)aminomethane]",α-Gal A thermal stability increase,α-Gal A [1],3 °C
same,elution of α-Gal A from the affinity resin,α-Gal A [2],effectively eluted

# From US11685912B2, “Affinity purification of glycosidase-cleaving enzymes” (TAKEDA PHARMACEUTICAL COMPANY LIMITED, priority 2018, dated 2023)
